pIC50: −log10 of the molar value.
Columns and labels:
Assay type in all cases: functional, cell-based
[1] = tested on: HCT-116; assay: Antiproliferative activity against human HCT116 cells after 72 hrs by sulforhodamine B assay; details: HCT-116, 72 h
[2] = tested on: SK-HEP1; assay: Antiproliferative activity against human SKHEP1 cells after 72 hrs by sulforhodamine B assay; details: SK-HEP1, 72 h
[3] = tested on: MDA-MB-231; assay: Antiproliferative activity against human MDA-MB-231 cells after 72 hrs by sulforhodamine B assay; details: MDA-MB-231, 72 h
[4] = tested on: SNU-638; assay: Antiproliferative activity against human SNU638 cells after 72 hrs by sulforhodamine B assay; details: SNU-638, 72 h
[5] = tested on: A549; assay: Antiproliferative activity against human A549 cells after 72 hrs by sulforhodamine B assay; details: A549, 72 h
[6] = tested on: MCF7; assay: Antiproliferative activity against human MCF7 cells after 72 hrs by sulforhodamine B assay; details: MCF7, 72 h

Row | SMILES | pIC50 [1] | pIC50 [2] | pIC50 [3] | pIC50 [4] | pIC50 [5] | pIC50 [6]
1 | COc1ncc(-c2ccc3ncnc(NCCN(C)C)c3c2)cc1NS(=O)(=O)c1ccc(F)cc1 | 5.49 | 5.02 | 5.91 | 5.92 | 5.62 | 5.91
2 | Cn1c(=O)n(-c2ccc(C(C)(C)C#N)cc2)c2c3cc(-c4cnc5ccccc5c4)ccc3ncc21 [DACTOLISIB] |  |  | 6.74 |  |  | 
3 | COc1ncc(-c2ccc3ncnc(NCCN4CCOCC4)c3c2)cc1NS(=O)(=O)c1ccc(F)cc1F | 5.56 | 6.08 | 6.42 | 5.40 | 6.21 | 4.54

Source: ChEMBL document CHEMBL4219088, “Novel 4-aminoquinazoline derivatives induce growth inhibition, cell cycle arrest and apoptosis via PI3Kα inhibition” (Bioorg Med Chem, 2018)
